{"source": "patent US10869924B2", "about": "“PD-L1 antagonist combination treatments” (MERCK PATENT GMBH, priority 2015, dated 2020)", "tested_on": "B16F10 melanoma", "test": "Subcutaneous B16F10 melanoma model, anti-4-1BB and avelumab (Example 3)", "format": "in vivo", "conditions": "anti-4-1BB 0.1 mg/mL, avelumab 1 mg/mL, 0.2 mL per mouse ip, 3 doses 3 to 4 days apart, C57BL/6 mice", "protocol": "Six (6)- to 8-week old female C57BL/6 mice were purchased from the Jackson Laboratories. All animals were housed in a pathogen free vivarium facility at Rinat and experiments were conducted according to the protocols in accordance with the Institutional Animal Care and Use Committee (IACUC) guidelines.\nThe B16F10 melanoma cell line was purchased from American Type Culture Collection (ATCC). The MC38 colon carcinoma cell line was kindly provided by Dr. Antoni Ribas at University of California, Los Angeles, Calif. Cells were cultured in Dulbecco's Modified Eagle's Medium (DMEM) supplemented with 10% fetal bovine serum (FBS), 2 mM L-glutamine at 37° C. in 5% carbon dioxide (CO2), and IMPACT-tested for pathogens at Research Animal Diagnostic Laboratory (RADIL) (Columbia, Mo.). Pathogen-free cells growing in an exponential growth phase were harvested and used for tumor inoculation.\nTherapeutic mouse anti-mouse 4-1BB mAb (mouse immunoglobulin G1 [mIgG1]), derived from the parental clone MAB9371 (R&D Systems), was prepared in-house. Avelumab was provided by Merck Serono. Isotype control mIgG1 (clone: MOPC-21) was purchased from BioXcell. Human IgG1 was prepared in-house. Anti-4-1BB and avelumab were diluted to concentrations of 0.1 mg/mL and 1 mg/mL, respectively, in phosphate buffered saline (PBS) (Life Technologies), and dosed at 0.2 mL per mouse intraperitoneally (ip) for 3 doses 3 to 4 days apart.\nC57BL/6 mice were inoculated subcutaneously at the right flank with 0.2×10^6 B16F10 or 0.5×10^6 MC38 cells in 0.1 mL of serum-free DMEM. When tumors reached target size, mice were randomized into treatment groups. Treatment was started on the same day as randomization. Tumor size was measured twice weekly in 2 dimensions using a caliper, and the volume was expressed in cubic millimeters using the formula: V=0.5 L×W^2 where L is the longest diameter of the tumor and W is the diameter perpendicular to L. Body weight was recorded weekly.\nResults were expressed as mean±SEM. Statistical analyses were performed using GraphPad Prism 6.0. One-way or 2-way ANOVA was applied to compare the statistical differences among multiple groups relative to the isotype control. P<0.05 was considered as significant difference.\nTwo murine models were used to evaluate the therapeutic efficacy of anti-4-1BB in combination with avelumab. In the B16F10 melanoma model, the average starting tumor size was 67 to 78 mm^3 (range 44 to 114 mm^3; n=7 animals per group) (Table 5). By Day 26 post tumor inoculation, the tumors for isotype, anti-4-1BB alone, and avelumab alone groups reached an average of 1206±397 mm^3, 1979±425 mm^3, and 2112±429 mm^3, respectively (Table 5). By contrast, dramatic tumor suppression (average of 341±146 mm^3) was observed when animals were administered with anti-4-1BB and avelumab concurrently (p<0.0001 vs single agent alone groups) (Table 5)."}
{"substance": "Avelumab: fully human mAb of the IgG1 isotype that specifically targets and blocks PD-L1", "values": [{"measurement": "Tumor Measurements of Subcutaneous B16F10 Melanoma, Mean tumor volume", "setting": "Day 13 post tumor inoculation (starting tumor size)", "result": 78, "unit": "mm^3"}, {"measurement": "Tumor Measurements of Subcutaneous B16F10 Melanoma, Mean tumor volume", "setting": "Day 17 post tumor inoculation", "result": 327, "unit": "mm^3"}, {"measurement": "Tumor Measurements of Subcutaneous B16F10 Melanoma, Mean tumor volume", "setting": "Day 20 post tumor inoculation", "result": 654, "unit": "mm^3"}, {"measurement": "Tumor Measurements of Subcutaneous B16F10 Melanoma, Mean tumor volume", "setting": "Day 24 post tumor inoculation", "result": 1304, "unit": "mm^3"}, {"measurement": "Tumor Measurements of Subcutaneous B16F10 Melanoma, Mean tumor volume", "setting": "Day 26 post tumor inoculation", "result": 2112, "unit": "mm^3"}, {"measurement": "Tumor Measurements of Subcutaneous B16F10 Melanoma, Mean tumor volume", "setting": "Day 26 post tumor inoculation, listed as avelumab", "result": "2112±429", "unit": "mm^3"}]}
